The results in this text go back to patent US3974137A, “Process for the preparation of 1-[L-(-)-γ-amino-α-hydroxybutyryl]-kanamycin A (RD-1341A)” (priority 1974, dated 1976).

The nature of series [1]: Hygroscopicity / water uptake on storage in air. It is filed as physicochemical.
For series [2], the system named is B. subtilis. Kind of series: Relative potency, agar plate. Format: cell-based. The conditions noted are these: standard: kanamycin A free base. The method, then: Compound IV, as recovered from this process, is identical with authentic product obtained by the method described in co-pending application, Ser. No. 221,378. M.p. 194° (dec.) [α]D^21 +85° (c=2, H2 O). […] (standard: kanamycin A free base).

Series [3] relates to gram-positive and gram-negative bacteria. The series can be described thus: Antibacterial activity (MIC), overall comparison with kanamycin A. It is filed as cell-based. The settings on record: in words. The source says:
Illustrated below are two tables showing the minimal inhibitory concentrations (MIC's) of kanamycin A and compound IVa (BB-K8) against a variety of gram-positive and gram-negative bacteria as obtained by the Steers agar-dilution method (Table I) and the two-fold dilution method (Table 2). Mueller-Hinton Agar Medium was used in the study of Table 1 and Heart Infusion Broth was used in the study of Table 2.

Series [4] deals with Staphylococcus aureus A-9537. Kind of series: CD50 in lethally infected mice. Format: in vivo, Staphylococcus aureus (infected mice). The conditions noted are these: for ED50: Staphylococcus aureus, A9537, sc, mice, subcutaneous, × 2 treatments (1 and 4 hours post-infection), test number 1, read-out: CD50 (curative dose, 50%); for effectiveness in infected mice (words): kanamycin A-sensitive strain. The method, then:
(§1) ^b CD50 =curative dose, 50% (mg./kg./treated × number of
(§2) treatments). Mice were treated subcutaneously at 1 and 4 hours
(§3) post-infection when 2 treatment were administered and at 0, 2, 4 and 6
(§4) hours post-infection when 4 treatment weree given. Other aspects of the
(§5) test were carried out as described by Price et al. (J. of Antibiotics

Series [5] is described as follows: Bioassay of column fractions (plate assays). It is filed as cell-based. The settings on record: pooled column fractions; BB-K8: average of 4 plate assays, ± standard deviation. The source says: *Average of 4 plate assays, ± standard deviation.
Series [6] concerns Escherichia coli A-15119. Kind of series: MIC, in vitro (Table 3). Format: cell-based. The settings on record: A15119, Mueller-Hinten agar, test number 1. From the text: (§6) ^a MIC =minimum inhibitory concentration (μg./ml.). Tests conducte
(§7) as described by Chisholm et al., (Antimicrob. Agents and
(§8) Chemotherapy-1969, p. 244, 1970) using Mueller-Hinten agar as the test

The subject of series [7] is Staphylococcus aureus A-9537. Kind of series: MIC, in vitro (Table 3). It is filed as cell-based.
From the text: as §6, §7, §8

Series [8] relates to Escherichia coli A-20520. Kind of series: MIC, in vitro (Table 3). It is filed as cell-based.
From the text: as §6, §7, §8

The subject of series [9] is Escherichia coli A-15119. Kind of series: CD50 in lethally infected mice. The conditions noted are these: for ED50: Escherichia coli, A15119, sc, mice, subcutaneous, × 2 treatments (1 and 4 hours post-infection), test number 1, read-out: CD50 (curative dose, 50%); for effectiveness in infected mice (words): kanamycin A-sensitive strain. It is filed as in vivo, Escherichia coli (infected mice). The method, then: as §1, §2, §3, §4, §5

The test system of series [10] is Escherichia coli A-20520. Kind of series: CD50 in lethally infected mice. It is filed as in vivo, Escherichia coli (infected mice). The conditions noted are these: for ED50: Escherichia coli, A20520, sc, read-out: CD50 (curative dose, 50%); for effectiveness in infected mice (words): kanamycin-resistant strain. The method, then:
as §1, §2, §3, §4, §5

Where [11] appears, read: mice, subcutaneous, × 4 treatments (0, 2, 4 and 6 hours post-infection), test number 2.

In brackets after ≈: the same amount, converted by molar mass. Several values for one entry are separate records, joined by “and”; a condition that tells them apart may be missing. Identical values can stand only once. Counter-ions that a name gives are not always drawn. Like-named read-outs stand apart in the source and are kept apart here.

Turning to `NCC[C@H](O)C(=O)N[C@@H]1C[C@H](N)[C@@H](O[C@H]2O[C@H](CN)[C@@H](O)[C@H](O)[C@H]2O)[C@H](O)[C@H]1O[C@H]1O[C@H](CO)[C@@H](O)[C@H](N)[C@H]1O` [BB-K8^. 2H2 SO4, Disulfate Salt of 1-[L-(-)-γ-amino-α-hydroxybutyryl]-kanamycin A], in series [1] (Karl Fisher, in air at room temperature for 18 hours), the “water content after storage in air” value was 9.55% and 9.89%. Also, the hygroscopicity entry in series [1] (disulfate salt) was “hygroscopic but not deliquescent”.

`NCC[C@H](O)C(=O)N[C@@H]1C[C@H](N)[C@@H](O[C@H]2O[C@H](CN)[C@@H](O)[C@H](O)[C@H]2O)[C@H](O)[C@H]1O[C@H]1O[C@H](CO)[C@@H](O)[C@H](N)[C@H]1O` [Compound IV, 1-[L-(-)-γ-amino-α-hydroxybutyryl]-kanamycin A]: in series [2], the “Relative potency against B. subtilis” value was 960 µg/mg. For the same compound, the “antibacterial activity compared with kanamycin A” value is “excellent antibacterial activity that appears superior to kanamycin A itself” in series [3] and “superior to kanamycin A in activity, particularly against kanamycin A resistant organisms” in series [3] (listed as compound IV). For the same compound, the ED50 in series [4] is 2 mg/kg; in [9], 2 mg/kg; in [10] (mice, subcutaneous, × 2 treatments (1 and 4 hours post-infection), test number 1) it was 66 mg/kg; in series [10] (setting [11]), 5 mg/kg. For the same compound, the “effectiveness in infected mice (words)” value in series [4] is given as “equally effective”; in series [4] (listed as compound IV), “slightly less active than kanamycin A”; in series [9], “equally effective”; in series [10], “marked protective action”. For the same compound, the Bioassay in [5] was determined as 786±101. For the same compound, the MIC in series [6] was found to be 2 µg/mL (≈ 3.42 µM); in [7] (A9537, Mueller-Hinten agar, test number 1, read-out: MIC), 1 µg/mL (≈ 1.71 µM); in [8] (A20520, Mueller-Hinten agar, test number 1, read-out: MIC), 2 µg/mL (≈ 3.42 µM). Also, the “times more active in 4-treatment regimen rather than in 2-treatment one” value in series [10] (mice, 4-treatment vs 2-treatment regimen) is on record as “approximately 10 times”.

On to `NCC1OC(OC2C(N)CC(N)C(OC3OC(CO)C(O)C(N)C3O)C2O)C(O)C(O)C1O` (centres unmarked) [Kanamycin A], for which the ED50 in series [4] amounted to 0.5 mg/kg; in series [9], 4 mg/kg; in [10], 200 mg/kg. The entries for the “effectiveness in infected mice (words)” value in [4], in [9] and in [10] were “equally effective”, “equally effective” and “not very effective in vivo”, respectively. Further, in series [5], the Bioassay came to 809. Further, the figures for the MIC in [6], in series [7] (A9537) and in series [8] (A20520) were 4 µg/mL (≈ 8.26 µM), 2 µg/mL (≈ 4.13 µM) and 125 µg/mL (≈ 258 µM), respectively. Also, in series [10] (setting [11]), the “CD50 (curative dose, 50%)” value was 200 mg./kg./treated × number of tr.
